In patent US20260325533A1, “CDK INHIBITOR COMPOUNDS” (ALEKSIA THERAPEUTICS, INC., priority 2023, published 2026):
Read-outs that look alike come from different tables or passages of the source.

Legend:
Type in all cases: biochemical
[1] = target: CDK4/CCND3 (Homo sapiens, UniProt P11802); assay: CDK4 homogeneous time-resolved fluorescence (HTRF) kinase assay; conditions: CDK4/CCND
Outline: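 CDK4/CCND3 at 1.5 nM was preincubated with compound for 20 min at 23 °C, then reacted for 60 min with 1 mM ATP and 50 nM ULight-4E-BP1 (Thr37/46) peptide. The reaction was stopped with EDTA, and phosphorylation was read by HTRF with a Eu-anti-phospho antibody. IC50 values came from 11-point half-log titrations, typically from 10 μM.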

[2] = target: CDK2/CCNE1 (Homo sapiens, UniProt P24941); assay: CDK2 homogeneous time-resolved fluorescence (HTRF) kinase assay; conditions: CDK2/CCNE
Outline: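 CDK2/CCNE1 (3 nM) preincubated 20 min at 23 °C with compound, then reacted 60 min at 23 °C with 1 mM ATP and 50 nM ULight-4E-BP1 (Thr37/46) peptide. Stopped with EDTA, phospho-peptide detected by Eu-anti-phospho antibody (665 nm or 665/615 ratio). IC50 from 11-point half-log titrations typically starting at 10 μM.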

[3] = target: CDK1/CCNB1 (Homo sapiens, UniProt P06493); assay: CDK1 homogeneous time-resolved fluorescence (HTRF) kinase assay; conditions: CDK1/CCNB
Outline: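 0.5 nM CDK1/CCNB1 was preincubated 20 min at 23 °C with compound in HEPES pH-unspecified buffer (MgCl2, EGTA, DTT, Tween 20), then reacted 60 min with 1 mM ATP and 50 nM ULight-4E-BP1 (Thr37/46) peptide. EDTA-stopped reactions were detected with 2 nM Eu-anti-phospho antibody; IC50 from 11-point half-log titrations.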

[4] = target: CDK6/CCND1 (Homo sapiens, UniProt Q00534); assay: CDK6 homogeneous time-resolved fluorescence (HTRF) kinase assay; conditions: CDK6/CCND
Outline: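 Enzyme pre-incubated 20 min at 23 °C with compound, then reacted 60 min at 23 °C with 1 mM ATP and 50 nM ULight-4E-BP1 (Thr37/46) peptide; 1 nM enzyme, 1% DMSO. EDTA-stopped, Eu-anti-phospho antibody TR-FRET read (665 nm or 665/615 ratio); 11-point half-log titration from 10 μM gave IC50.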

[5] = <25 nM, read-out: CDK2/CCNE IC50 <25 nM
[6] = >250 nM marked x, read-out: CDK1/CCNB IC50 >250 nM
[7] = 25-250 nM marked x, read-out: CDK6/CCND IC50 25-250 nM
[8] = 25-250 nM marked x, read-out: CDK4/CCND IC50 25-250 nM
[9] = >250 nM marked x, read-out: CDK4/CCND IC50 >250 nM
[10] = 25-250 nM marked x, read-out: CDK2/CCNE IC50 25-250 nM
[11] = >250 nM marked x, read-out: CDK6/CCND IC50 >250 nM
[12] = x = IC50 >250 nM, read-out: CDK4/CCND IC50 (>250 nM column)
[13] = x = IC50 <25 nM, read-out: CDK2/CCNE IC50 (<25 nM)
[14] = x = IC50 >250 nM, read-out: CDK1/CCNB IC50 (>250 nM column)
[15] = x = IC50 >250 nM, read-out: CDK6/CCND IC50 (>250 nM column)

Chain of CDK1/CCNB1 (P06493 whole entry): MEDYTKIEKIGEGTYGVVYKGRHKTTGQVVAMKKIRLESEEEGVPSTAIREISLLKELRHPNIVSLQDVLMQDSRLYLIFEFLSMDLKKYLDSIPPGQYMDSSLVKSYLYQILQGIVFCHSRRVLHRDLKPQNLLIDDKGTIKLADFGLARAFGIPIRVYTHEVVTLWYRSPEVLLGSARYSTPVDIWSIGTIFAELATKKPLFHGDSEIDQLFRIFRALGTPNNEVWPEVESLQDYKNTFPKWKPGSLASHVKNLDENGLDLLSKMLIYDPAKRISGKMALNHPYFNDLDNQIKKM
Chain of CDK1/CCNB1 (P14635 whole entry partner): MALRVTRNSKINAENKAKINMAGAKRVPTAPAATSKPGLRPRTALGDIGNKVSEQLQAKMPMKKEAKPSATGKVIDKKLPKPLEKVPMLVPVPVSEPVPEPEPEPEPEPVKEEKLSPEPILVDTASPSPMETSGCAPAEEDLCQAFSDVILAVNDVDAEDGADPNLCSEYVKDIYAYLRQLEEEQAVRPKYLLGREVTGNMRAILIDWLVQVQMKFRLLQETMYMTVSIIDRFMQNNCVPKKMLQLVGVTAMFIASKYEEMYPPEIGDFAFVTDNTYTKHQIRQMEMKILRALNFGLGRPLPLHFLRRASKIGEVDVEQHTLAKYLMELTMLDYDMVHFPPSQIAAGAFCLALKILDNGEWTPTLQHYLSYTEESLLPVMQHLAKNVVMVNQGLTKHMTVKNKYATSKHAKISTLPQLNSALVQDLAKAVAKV
Chain of CDK4/CCND3 (P11802 whole entry): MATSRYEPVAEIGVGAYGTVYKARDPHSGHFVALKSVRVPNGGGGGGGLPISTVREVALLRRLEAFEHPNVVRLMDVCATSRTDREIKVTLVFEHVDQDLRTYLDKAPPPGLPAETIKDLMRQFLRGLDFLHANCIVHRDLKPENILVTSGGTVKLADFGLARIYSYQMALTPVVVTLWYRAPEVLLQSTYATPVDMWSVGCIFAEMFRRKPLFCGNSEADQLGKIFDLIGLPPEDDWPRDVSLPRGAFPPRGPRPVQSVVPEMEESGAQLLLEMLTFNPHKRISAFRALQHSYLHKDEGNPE
Chain of CDK4/CCND3 (P30281 whole entry partner): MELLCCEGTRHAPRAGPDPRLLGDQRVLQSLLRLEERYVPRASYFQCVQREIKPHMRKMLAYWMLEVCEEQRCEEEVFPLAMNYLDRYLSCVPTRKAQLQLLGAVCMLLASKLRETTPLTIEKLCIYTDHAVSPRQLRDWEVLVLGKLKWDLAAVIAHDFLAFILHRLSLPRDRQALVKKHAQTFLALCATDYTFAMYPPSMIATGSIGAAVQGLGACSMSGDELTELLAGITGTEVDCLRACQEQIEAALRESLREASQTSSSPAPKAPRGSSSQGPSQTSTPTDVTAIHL
Chain of CDK6/CCND1 (Q00534 whole entry): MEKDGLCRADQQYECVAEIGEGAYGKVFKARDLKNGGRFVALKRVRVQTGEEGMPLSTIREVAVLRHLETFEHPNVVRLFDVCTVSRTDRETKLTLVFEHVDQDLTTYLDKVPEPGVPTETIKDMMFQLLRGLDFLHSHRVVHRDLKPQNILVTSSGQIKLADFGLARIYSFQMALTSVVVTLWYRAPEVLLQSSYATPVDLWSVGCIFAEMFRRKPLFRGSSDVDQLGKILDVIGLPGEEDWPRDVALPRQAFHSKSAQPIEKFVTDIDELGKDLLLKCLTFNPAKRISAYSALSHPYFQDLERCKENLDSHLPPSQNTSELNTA
Chain of CDK6/CCND1 (P24385 whole entry partner): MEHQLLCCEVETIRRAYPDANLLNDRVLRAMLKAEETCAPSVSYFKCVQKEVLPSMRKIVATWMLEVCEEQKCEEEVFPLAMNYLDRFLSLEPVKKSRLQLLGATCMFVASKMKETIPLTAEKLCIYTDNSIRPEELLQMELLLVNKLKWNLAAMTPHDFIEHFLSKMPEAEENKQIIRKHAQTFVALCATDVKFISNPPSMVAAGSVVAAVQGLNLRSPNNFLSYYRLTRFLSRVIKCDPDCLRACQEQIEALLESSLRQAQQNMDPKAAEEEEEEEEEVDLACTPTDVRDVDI

Compound | IC50 [2, 5] [nM] | IC50 [3, 6] [nM] | IC50 [1, 9] [nM] | IC50 [4, 11] [nM] | IC50 [1, 12] [nM] | IC50 [2, 13] [nM] | IC50 [3, 14] [nM] | IC50 [4, 15] [nM] | further results
CS(=O)(=O)N1CCC(Nc2cc3c(C#Cc4ccc(C#N)cc4)nccc3cn2)CC1 [Ex 251, 4-((7-((1-(methylsulfonyl)piperidin-4-yl)amino)-2,6-naphthyridin-1-yl)ethynyl)benzonitrile] | < 25 | > 250 |  |  |  |  |  |  | IC50 ([1]; <25 nM, read-out: CDK4/CCND IC50 <25 nM): < 25 nM; IC50 [4, 7]: 25 to 250 nM
O=C(O)c1ccc(Nc2cc3c(C4=CCCCC4)nccc3cn2)cc1 [Ex 253, 4-((5-(cyclohex-1-en-1-yl)-2,6-naphthyridin-3-yl)amino)benzoic acid] | < 25 | > 250 |  |  |  |  |  |  | IC50 [1, 8]: 25 to 250 nM; IC50 [4, 7]: 25 to 250 nM
Cc1c(-c2nccc3cnc(Nc4ccc(S(C)(=O)=O)cc4)cc23)ccc2c1cnn2CCO [Ex 267, 2-(4-methyl-5-(7-((4-(methylsulfonyl)phenyl)amino)-2,6-naphthyridin-1-yl)-1H-indazol-1-yl)ethan-1-ol] | < 25 |  |  |  |  |  |  |  | IC50 [1, 8]: 25 to 250 nM; IC50 ([3]; 25-250 nM marked x, read-out: CDK1/CCNB IC50 25-250 nM): 25 to 250 nM; IC50 [4, 7]: 25 to 250 nM
CC1(C)C(=O)Nc2cc(C#Cc3nccc4cnc(Nc5ccc(S(C)(=O)=O)cc5C(F)F)cc34)ccc21 [Ex 312, 6-((7-((2-(difluoromethyl)-4-(methylsulfonyl)phenyl)amino)-2,6-naphthyridin-1-yl)ethynyl)-3,3-dimethylindolin-2-one] | < 25 | > 250 | > 250 | > 250 |  |  |  |  | 
Cc1cc(S(C)(=O)=O)ccc1Nc1cc2c(C#Cc3cc4c(cc3F)C(C)(C)C(=O)N4)nccc2cn1 [Ex 342, 5-fluoro-3,3-dimethyl-6-((7-((2-methyl-4-(methylsulfonyl)phenyl)amino)-2,6-naphthyridin-1-yl)ethynyl)indolin-2-one] | < 25 | > 250 | > 250 | > 250 |  |  |  |  | 
Cc1cc(S(C)(=O)=O)ccc1Nc1cc2c(C#Cc3ccc4c(c3)NC(=O)C43CC3)nccc2cn1 [Ex 351, 6'-((7-((2-methyl-4-(methylsulfonyl)phenyl)amino)-2,6-naphthyridin-1-yl)ethynyl)spiro[cyclopropane-1,3'-indolin]-2'-one] |  |  |  |  | > 250 | < 25 | > 250 | > 250 | 
CCS(=O)(=O)c1ccc(Nc2cc3c(C#Cc4ccc5c(c4)NC(=O)C54CC4)nccc3cn2)c(C)c1 [Ex 356, 6'-((7-((4-(ethylsulfonyl)-2-methylphenyl)amino)-2,6-naphthyridin-1-yl)ethynyl)spiro[cyclopropane-1,3'-indolin]-2'-one] |  |  |  |  | > 250 | < 25 |  | > 250 | IC50 ([3]; x = IC50 25-250 nM, read-out: CDK1/CCNB IC50 (25-250 nM)): 25 to 250 nM
CCS(=O)(=O)c1ccc(Nc2cc3c(C#Cc4ccc5c(c4)NC(=O)C54CC4)nccc3cn2)c(OC)c1 [Ex 357, 6'-((7-((4-(ethylsulfonyl)-2-methoxyphenyl)amino)-2,6-naphthyridin-1-yl)ethynyl)spiro[cyclopropane-1,3'-indolin]-2'-one] |  |  |  |  | > 250 | < 25 | > 250 | > 250 | 
COc1cc(S(C)(=O)=O)ccc1Nc1cc2c(C#Cc3ccc4c(c3)NC(=O)C43CCC3)nccc2cn1 [Ex 361, 6'-((7-((2-methoxy-4-(methylsulfonyl)phenyl)amino)-2,6-naphthyridin-1-yl)ethynyl)spiro[cyclobutane-1,3'-indolin]-2'-one] |  |  |  |  | > 250 | < 25 | > 250 | > 250 | 
COc1cc(S(C)(=O)=O)ccc1Nc1cc2c(C#Cc3ccc4c(c3)NC(=O)C43CC3)nccc2cn1 [Ex 375, 6'-((7-((2-methoxy-4-(methylsulfonyl)phenyl)amino)-2,6-naphthyridin-1-yl)ethynyl)spiro[cyclopropane-1,3'-indolin]-2'-one] |  |  |  |  | > 250 | < 25 | > 250 | > 250 | 

Continued, in another order:

IC50 [2, 5] [nM] | IC50 [3, 6] [nM] | IC50 [1, 9] [nM] | IC50 [4, 11] [nM] | IC50 [1, 12] [nM] | IC50 [2, 13] [nM] | IC50 [3, 14] [nM] | IC50 [4, 15] [nM] | Compound | further results
 | > 250 | > 250 | > 250 |  |  |  |  | CCC1(CC)C(=O)Nc2cc(C#Cc3nccc4cnc(Nc5ccc(S(=O)(=O)C6CC(F)(F)C6)cc5OC)cc34)ccc21 [Ex 277, 6-((7-((4-((3,3-difluorocyclobutyl)sulfonyl)-2-methoxyphenyl)amino)-2,6-naphthyridin-1-yl)ethynyl)-3,3-diethylindolin-2-one] | IC50 [2, 10]: 25 to 250 nM
< 25 | > 250 | > 250 | > 250 |  |  |  |  | O=C1Nc2cc(C#Cc3nccc4cnc(Nc5ccc(S(=O)(=O)CC(F)(F)F)cc5)cc34)ccc2C12CC2 [Ex 282, 6'-((7-((4-((2,2,2-trifluoroethyl)sulfonyl)phenyl)amino)-2,6-naphthyridin-1-yl)ethynyl)spiro[cyclopropane-1,3'-indolin]-2'-one] | 
 | > 250 | > 250 | > 250 |  |  |  |  | CCC1(CC)C(=O)Nc2cc(C#Cc3nccc4cnc(Nc5ccc(S(=O)(=O)CC(F)(F)F)cc5F)cc34)ccc21 [Ex 283, 3,3-diethyl-6-((7-((2-fluoro-4-((2,2,2-trifluoroethyl)sulfonyl)phenyl)amino)-2,6-naphthyridin-1-yl)ethynyl)indolin-2-one] | IC50 ([2]; >250 nM marked x, read-out: CDK2/CCNE IC50 >250 nM): > 250 nM
 | > 250 | > 250 | > 250 |  |  |  |  | CCC1(CC)C(=O)Nc2cc(C#Cc3nccc4cnc(Nc5ccc(S(=O)(=O)CC(F)(F)F)cc5C)cc34)ccc21 [Ex 286, 3,3-diethyl-6-((7-((2-methyl-4-((2,2,2-trifluoroethyl)sulfonyl)phenyl)amino)-2,6-naphthyridin-1-yl)ethynyl)indolin-2-one] | IC50 [2, 10]: 25 to 250 nM
 | > 250 | > 250 | > 250 |  |  |  |  | CCC1(CC)C(=O)Nc2cc(C#Cc3nccc4cnc(Nc5ccc(S(=O)(=O)C(C)C)cc5OC)cc34)ccc21 [Ex 338, 3,3-diethyl-6-((7-((4-(isopropylsulfonyl)-2-methoxyphenyl)amino)-2,6-naphthyridin-1-yl)ethynyl)indolin-2-one] | IC50 [2, 10]: 25 to 250 nM
 |  |  |  | > 250 |  | > 250 | > 250 | CC1(C)C(=O)Nc2cc(C#Cc3nccc4cnc(Nc5ccc(S(C)(=O)=O)cc5C(F)(F)F)cc34)ccc21 [Ex 352, 3,3-dimethyl-6-((7-((4-(methylsulfonyl)-2-(trifluoromethyl)phenyl)amino)-2,6-naphthyridin-1-yl)ethynyl)indolin-2-one] | IC50 ([2]; x = IC50 >250 nM, read-out: CDK2/CCNE IC50 (>250 nM column)): > 250 nM
 |  |  |  | > 250 | < 25 | > 250 | > 250 | CCC1(CC)C(=O)Nc2cc(C#Cc3nccc4cnc(Nc5ccc(S(=O)(=O)C(C)C)cc5C)cc34)ccc21 [Ex 369, 3,3-diethyl-6-((7-((4-(isopropylsulfonyl)-2-methylphenyl)amino)-2,6-naphthyridin-1-yl)ethynyl)indolin-2-one] | 
 |  |  |  | > 250 | < 25 | > 250 | > 250 | CCC1(CC)C(=O)Nc2cc(C#Cc3nccc4cnc(Nc5ccc(S(=O)(=O)CC)cc5C)cc34)ccc21 [Ex 370, 3,3-diethyl-6-((7-((4-(ethylsulfonyl)-2-methylphenyl)amino)-2,6-naphthyridin-1-yl)ethynyl)indolin-2-one] | 
 |  |  |  | > 250 | < 25 | > 250 | > 250 | CCC1(CC)C(=O)Nc2cc(C#Cc3nccc4cnc(Nc5ccc(S(=O)(=O)CC)cc5OC)cc34)ccc21 [Ex 371, 3,3-diethyl-6-((7-((4-(ethylsulfonyl)-2-methoxyphenyl)amino)-2,6-naphthyridin-1-yl)ethynyl)indolin-2-one] | 
